Molecules are shown by their SMILES.

Data on 31 compounds can be found in ChEMBL document CHEMBL3045152, “Synthesis and antiviral activity of new 4-(phenylamino)/4-[(methylpyridin-2-yl)amino]-1-phenyl-1H-pyrazolo[3,4-b]pyridine-4-carboxylic acids derivatives” (Med Chem Res, 2007).

The test system of series [1] is Human alphaherpesvirus 1. Put plainly: Antiviral activity against Human herpesvirus 1 at 50 uM by end point titration assay. It is filed as functional.
Series [2] is described as follows: Cytotoxicity against Chlorocebus aethiops (African green monkey) Vero cells after 72 hr by MTT assay. It is filed as cell-based. The note with it: chlorocebus sabaeus. (Tetrazolium assays rely on reduction of a dye to a coloured formazan, in cell work by metabolically active cells.)
A short description of series [3]: Selectivity index, ratio of CC50 for african green monkey Vero cells to EC50 for Herpes simplex virus 1. Type of series: toxicity, cell-based. Particulars: read-out: Ratio CC50/EC50.
Series [4] relates to Human alphaherpesvirus 1. Put plainly: Antiviral activity against Human herpesvirus 1 infected in Vero cells after 72 hr by plaque reduction assay. It is filed as functional, organism-based. Particulars: Human alphaherpesvirus 1, Vero.
A short description of series [5]: Selectivity index, ratio of CC50 for african green monkey Vero cells to EC50 for Vesicular stomatitis virus. Type of series: toxicity, cell-based. Particulars: read-out: Ratio CC50/EC50.
In series [6] the test system is Vesicular stomatitis virus. The series is described as follows: Antiviral activity against Vesicular stomatitis virus infected Vero cells after 72 hr by plaque reduction assay. It is filed as functional, organism-based. (In general: Plaque reduction counts the foci of infection that form in a cell layer.)
The next series relates to Mayaro virus. The series is described as follows: Antiviral activity against Mayaro virus infected in Vero cells after 72 hr by plaque reduction assay. Type of series: functional, organism-based.
The nature of series [7]: Selectivity index, ratio of CC50 for african green monkey Vero cells to EC50 for Mayaro virus. Type of series: toxicity, cell-based. The note with it: read-out: Ratio CC50/EC50.
Series [8] relates to Human alphaherpesvirus 1. Put plainly: Antiviral activity against Human herpesvirus 1 at 10 uM by end point titration assay. It is filed as functional.

On to `CCOC(=O)c1cnc2c(cnn2-c2ccccc2)c1Nc1cc(C)ccn1`, for which the inhibition at 50 µM with Human alphaherpesvirus 1 [1] stood at 60%.

`CCOC(=O)c1cnc2c(cnn2-c2ccccc2)c1Nc1ccc(C)cn1`: testing at 50 µM in the series on Human alphaherpesvirus 1 [1] gave an inhibition of 90%.

On to `CCOC(=O)c1cnc2c(cnn2-c2ccccc2)c1Nc1cccc(C)n1`, for which, in the series with Human alphaherpesvirus 1 [1], the inhibition at 50 µM is 90%.

As for `Cc1ccnc(Nc2c(C(=O)O)cnc3c2cnn3-c2ccccc2)c1`, the inhibition at 50 µM in the series with Human alphaherpesvirus 1 [1] stood at 75%.

`Cc1ccc(Nc2c(C(=O)O)cnc3c2cnn3-c2ccccc2)nc1` had an inhibition at 50 µM in the series with Human alphaherpesvirus 1 [1] of 60%.

`Cc1cccc(Nc2c(C(=O)O)cnc3c2cnn3-c2ccccc2)n1` returned an inhibition at 50 µM in the series with Human alphaherpesvirus 1 [1] of 21%.

For the compound `CCOC(=O)c1cnc2c(cnn2-c2ccccc2)c1Nc1ccc(Cl)cc1`, 50 µM produced 92% inhibition in the series on Human alphaherpesvirus 1 [1].

`CCOC(=O)c1cnc2c(cnn2-c2ccccc2)c1Nc1cccc(OC)c1` showed an inhibition at 50 µM in the series with Human alphaherpesvirus 1 [1] of 98%.

As for `CCOC(=O)c1cnc2c(cnn2-c2ccccc2)c1Nc1ccc(OC)cc1`, in the series on Human alphaherpesvirus 1 [1], the inhibition at 50 µM is 75.5%.

`CCOC(=O)c1cnc2c(cnn2-c2ccccc2)c1Nc1cccc(F)c1`: 50 µM produced 0% inhibition in the series with Human alphaherpesvirus 1 [1].

For `CCOC(=O)c1cnc2c(cnn2-c2ccccc2)c1Nc1ccccc1`, 50 µM produced 90% inhibition in the series on Human alphaherpesvirus 1 [1].

Compound `CCOC(=O)c1cnc2c(cnn2-c2ccccc2)c1Nc1ccc(C)cc1` showed an inhibition at 50 µM with Human alphaherpesvirus 1 [1] of 69.2%.

With `CCOC(=O)c1cnc2c(cnn2-c2ccccc2)c1Nc1cccc(Cl)c1`, testing at 50 µM in the series with Human alphaherpesvirus 1 [1] gave an inhibition of 60%.

Compound `CCOC(=O)c1cnc2c(cnn2-c2ccccc2)c1Nc1cccc([N+](=O)[O-])c1` displayed a 50% cytotoxic concentration (CC50) at 72 h in series [2] of 1000 µM. Further, the selectivity ratio in series [3] worked out at 141. In the series on Human alphaherpesvirus 1 [4], this compound had an EC50 of 6.8 µM. The same compound registered an inhibition at 50 µM in the series with Human alphaherpesvirus 1 [1] of 90%.

`CCOC(=O)c1cnc2c(cnn2-c2ccccc2)c1Nc1ccc([N+](=O)[O-])cc1` yielded an inhibition at 50 µM with Human alphaherpesvirus 1 [1] of 0%.

`CCOC(=O)c1cnc2c(cnn2-c2ccccc2)c1Nc1cccc(Br)c1` yielded an inhibition at 50 µM in the series with Human alphaherpesvirus 1 [1] of 70%.

In the series on Human alphaherpesvirus 1 [1], `CCOC(=O)c1cnc2c(cnn2-c2ccccc2)c1Nc1ccc(Br)cc1` had an inhibition at 50 µM of 75%.

Consider `CCOC(=O)c1cnc2c(cnn2-c2ccccc2)c1Nc1cccc(C)c1`, for which the inhibition at 50 µM with Human alphaherpesvirus 1 [1] amounted to 90%.

`COc1ccc(Nc2c(C(=O)O)cnc3c2cnn3-c2ccccc2)cc1` yielded an inhibition at 50 µM with Human alphaherpesvirus 1 [1] of 80.6%.

`O=C(O)c1cnc2c(cnn2-c2ccccc2)c1Nc1ccc(Cl)cc1` showed an inhibition at 50 µM in the series with Human alphaherpesvirus 1 [1] of 68%.

The compound `O=C(O)c1cnc2c(cnn2-c2ccccc2)c1Nc1ccc(Br)cc1` displayed an inhibition at 50 µM with Human alphaherpesvirus 1 [1] of 37%.

For the compound `O=C(O)c1cnc2c(cnn2-c2ccccc2)c1Nc1ccc([N+](=O)[O-])cc1`, the inhibition at 50 µM in the series on Human alphaherpesvirus 1 [1] was found to be 80%.

For the compound `COc1cccc(Nc2c(C(=O)O)cnc3c2cnn3-c2ccccc2)c1`, testing at 50 µM with Human alphaherpesvirus 1 [1] gave an inhibition of 75.5%.

In the case of `O=C(O)c1cnc2c(cnn2-c2ccccc2)c1Nc1ccccc1`, the values for the selectivity ratio in series [5] and in series [7] were 54 and 28, respectively. Also, the half-maximal effective concentration (EC50) in series [6] stood at 2.5 µM; in the series with Mayaro virus, 4.8 µM. In series [2], the midpoint of cytotoxicity, the CC50 at 72 h, lay at 135 µM. In the series on Human alphaherpesvirus 1 [1], this compound registered an inhibition at 50 µM of 0%.

In the case of `O=C(O)c1cnc2c(cnn2-c2ccccc2)c1Nc1cccc(Br)c1`, the midpoint of cytotoxicity in [2], the CC50 at 72 h, lay at 600 µM. Further, the selectivity ratio in series [3] is 272. Also, the 50% effective concentration (EC50) in the series on Human alphaherpesvirus 1 [4] was 2.2 µM. This compound came in with an inhibition at 50 µM in the series on Human alphaherpesvirus 1 [1] of 84%.

On to `Cc1cccc(Nc2c(C(=O)O)cnc3c2cnn3-c2ccccc2)c1`, for which 50 µM produced 38.5% inhibition in the series with Human alphaherpesvirus 1 [1].

`O=C(O)c1cnc2c(cnn2-c2ccccc2)c1Nc1cccc([N+](=O)[O-])c1` came in with an inhibition at 50 µM in the series with Human alphaherpesvirus 1 [1] of 20.6%.

In the series on Human alphaherpesvirus 1 [1], `Cc1ccc(Nc2c(C(=O)O)cnc3c2cnn3-c2ccccc2)cc1` registered an inhibition at 50 µM of 58.4%.

Consider `O=C(O)c1cnc2c(cnn2-c2ccccc2)c1Nc1cccc(Cl)c1`, for which the selectivity ratio in [5] is 37; in series [7], 71. Further, the concentration for a half-maximal effect (EC50) in series [6] amounted to 1 µM; in the series with Mayaro virus, 0.52 µM. Besides, half-maximal cytotoxicity in [2] (CC50 at 72 h) was put at 37.4 µM. The compound further returned an inhibition at 50 µM in the series on Human alphaherpesvirus 1 [1] of 68%.

Compound `O=C(O)c1cnc2c(cnn2-c2ccccc2)c1Nc1cccc(F)c1` returned an inhibition at 50 µM in the series with Human alphaherpesvirus 1 [1] of 68%.

On to `Nc1nc2c(ncn2COCCO)c(=O)[nH]1` [ACYCLOVIR], for which the selectivity ratio in [7] and in [3] was 880 throughout. In addition, the midpoint of cytotoxicity in series [2], the CC50 at 72 h, lay at 960 µM. Also, the inhibition at 10 µM with Human alphaherpesvirus 1 [8] is 96%.

In general, inhibition refers to the relative decrease from the control value, in per cent. In general, CC50 refers to the concentration that lowers cell viability or growth by half. What is called EC50 is the concentration at which the effect is half-maximal.
